Assay results: patent US11046647B2, “Activators of the unfolded protein response” (The Board of Trustees of the University of Illinois, priority 2018, dated 2021)

Tests used:
[1] = tested on: ERα Negative MCF-10A cells; assay: Trypan Blue exclusion cell death assay, MCF-10A; format: cell-based; details: 75 nM, 24 hours
Text: (§1) TRYPAN BLUE: For decades, viable cells have been measured by their ability to exclude the dye Trypan Blue. […] Dead cells, which have lost membrane integrity, take up the dye and are blue. Thus, the percentage of dead cells is the percentage of cells that are Trypan Blue positive out of the total cell population. Quantitative assessment of Trypan Blue uptake uses a cell counter from Fisher. Since the assay is instrument based, there is no observer bias in determining the percentage of Trypan Blue positive cells.
(§2) TRYPAN BLUE ASSAYS: Assays are performed on cells in 6 well plates: 300,000 cells are plated in each well of a 6-well plate in 3 ml of medium. After 24 hours, the DMSO vehicle or the indicated compound is added (in 1000th of the vol.) The cells incubated for an additional 24 hours, and then harvested in 0.25 ml of trypsin, followed after harvest by 0.75 ml of medium. The cells are spun down and resuspended in 100-200 μl of medium left that is over the cell pellet (resuspend cells by pipetting up and down a few times). Add 10 μl to 10 μl of trypan blue. Then 10 μl is inserted into the counting slide. After inserting the slide into the Fisher TC20 counting is automatic (these many cells are needed because an accurate ratio of Trypan Blue positive to Trypan Blue negative cells requires about 200 cells in the field the instrument counts).
In FIG. 28, neither the test compounds nor BHPI kill non-tumorigenic ERα Negative MCF-10A breast cells. ERα Negative MCF-10A cells were maintained for 24 hours in DMSO vehicle or 75 nM of BHPI or 75 nM of each of the indicated test compounds: 4, 6 and 105. Cell death was determined using the instrument-based Trypan Blue exclusion assay. (n=3±SEM).

[2] = tested on: CaOV-3 ovarian cancer cells; assay: Automated Trypan Blue exclusion cell death assay, Caov-3; format: cell-based, human; details: 24 hours
Protocol: FIG. 33. 105, but not BHPI, kills therapy-resistant ovarian CaOV-3 ovarian cancer cells. (±)-105; Cell death assay: Automated Trypan Blue exclusion. (24 hours post (±)-105)
as §1
as §2, with “After inserting the slide into the Fisher TC20 counting is automatic (these many cells are needed because an accurate ratio of Trypan Blue positive to Trypan Blue negative cells requires about 200 cells in the field the instrument counts).” left out

[3] = tested on: protein synthesis in Caov-3 cells; assay: Protein synthesis inhibition (35S-methionine incorporation), Caov-3; format: cell-based, human; details: 1,000 nM
Protocol: ERα positive Caov-3, human ovarian cancer cells, were treated for the indicated times with 1,000 nM BHPI or 1,000 nM (−)-105. Cells were briefly labeled with ^35S-methionine. Incorporation of labeled ^35S-methionine into protein was determined by trichloroacetic acid precipitation and trapping of precipitated protein, but not free amino acids, in small Whatman hardened ashless filters. After solubilizing the protein in the filters with base and neutralization with acid, the samples were counted in a liquid scintillation counter. Shown is the average (n≥3) percent inhibition of protein synthesis compared to the 0-time sample. The near quantitative inhibition of protein synthesis by (−)-105 is consistent with (−)-105 inducing lethal hyperactivation of the PERK arm of the UPR. Even non-growing cells are constantly degrading protein and making new proteins. Cells in which nearly all (>90%) of protein synthesis is inhibited cannot grow and will ultimately die.

[4] = Pharmacokinetics, brain penetration and tolerability in mice; format: in vivo, mouse
Protocol: FIG. 40. SERK-F6 is tolerated, reaches biologically relevant concentrations, and crosses the blood-brain barrier in vivo. a, Serum concentrations of SERK-F6 after indicated doses, route of administration, and time. Concentration was determined via LC/MS/MS analysis. […] AUC: Area Under the Curve, Cmax: maximum concentration, t1/2: half-life. c,d, Mice (CD-1) were treated with the indicated doses and times, then sacrificed and their serum and brains collected. Concentrations were determined via LC/MS/MS analysis. […] Treatment arms: vehicle daily (n=3), vehicle weekly (n=3), fulv. weekly (5 mg/mouse, s.c., n=6), SERK-F6 daily (10 or 40 mg/kg p.o.). Vehicle arms were combined. g, Mass of tumors harvested from mice. h, observed murine weight during this MCF-7 study (n=6). i,j, Tumor measurements for MCF-7 bilateral orthotopic model (n=4-5).
The pharmacokinetics of SERK-F6 was measured in mice (FIG. 40A-B).

MCF-7 cells = assay: Trypan Blue exclusion cell death assay, MCF-7; format: cell-based, human; details: 24 hours
Text: as §1
TRYPAN BLUE ASSAYS: Assays are performed on cells in 6 well plates: 300,000 cells are plated in each well of a 6-well plate in 3 ml of medium. After 24 hours, the DMSO vehicle or the indicated compound is added (in 1000th of the vol.) The cells incubated for an additional 24 hours, and then harvested in 0.25 ml of trypsin, followed after harvest by 0.75 ml of medium. […]
The Trypan Blue cell death assay was used to evaluate the ability of the active enantiomer of 105 (−) [(−)-105] to kill ERα positive MCF-7 and TYS-Luc, human breast cancer cells. […] After 24 hours, the cells were harvested, and the % dead cells was determined by automated Trypan Blue exclusion using the Countess II automated hemocytometer. Percentage of viable cells was calculated by doing 100-(Cell Death %). […]

MDG-luc. cells = assay: Metastatic model, MDG-luc cells injected into the tail-vein; format: in vivo, mouse; details: daily dosing
Text: FIG. 41. SERK-F6 eradicates mutant ERα primary and metastatic breast cancer. a-c, TYS-luc. orthotopic tumors were established in NSG ovariectomized mice (no E2 pellet, 60 days to establish) and dosed daily as indicated (n=5-6). b, representative examples of bioluminescence images of SERK-F6 treated mice (7 days). d,e, TDG-luc. orthotopic tumors were established in NSG ovariectomized mice (no E2 pellet, 120 days to establish) and dosed daily as indicated (n=4-5). e, Bioluminescence image of SERK-F6 treated mouse with TDG-luc. tumor burden after 7 days. f, MYS-luc. orthotopic tumors were established in NSG ovariectomized mice (no E2 pellet, 45 days to establish) and dosed daily as indicated (n=4-5). g, MDG-luc. orthotopic tumors were established in NSG ovariectomized mice (no E2 pellet, 45 days to establish) and dosed daily as indicated (n=4-5). h, Metastatic model with MDG-luc. cells injected into the tail-vein of NSG ovariectomized mice (no E2 pellet, 1.5 months to establish) and mice were dosed daily as indicated (n=4-5).

[5] = tested on: partially BHPI-resistant T47D clones 1,3,8, and 11; assay: MTS growth assay, partially BHPI-resistant T47D clones; format: cell-based, human; details: 100 nM and 1 μM; 4 days
Protocol: ERα containing T47D human breast cancer cells able to survive in 1 μM BHPI were selected by clonal outgrowth. The effect of 100 nM and 1 μM BHPI and (−)-105 on growth of the (BHPI-sensitive) parental T47D cells and partially BHPI-resistant T47D clones 1,3,8, and 11 was evaluated. 4,000 cells/well were plated. Cell number was determined by MTS assay from a standard curve of absorbance versus cell number. […] Thus, in 4 days (−)-105 killed some, but not all, of the resistant cells.

Structure (SMILES)	cell death of MCF-10A cells [1]	killing of Caov-3 cells [2]	inhibition of the synthesis of new proteins [3]	blood-brain barrier penetration ([4]; CD-1 mice, serum and brain LC/MS/MS)	effect on ERα tissues as measured by circulating estradiol levels ([4]; long-term treatment)	tolerability in vivo ([4]; mouse, in vivo)	concentrations reached in vivo ([4]; serum, LC/MS/MS)	killing of MCF-7 cells, dose response (MCF-7 cells)	metastatic tumor burden (MDG-luc. cells)	effect on growth / cell number [5]
O=C1Nc2c(C(F)(F)F)cccc2C1(c1ccc(O)cc1)c1ccc(OC(F)(F)F)cc1 (racemic) [(±)-105, 3-(4-hydroxyphenyl)-3-(4-(trifluoromethoxy)phenyl)-7-(trifluoromethyl)indolin-2-one]	neither BHPI nor any of the test compounds induce significant death	kills								
O=C1Nc2c(C(F)(F)F)cccc2C1(c1ccc(O)cc1)c1ccc(OC(F)(F)F)cc1 (single isomer, unassigned; (-)) [(−)-105, 3-(4-hydroxyphenyl)-3-(4-(trifluoromethoxy)phenyl)-7-(trifluoromethyl)indolin-2-one]			near-quantitative	blood-brain barrier penetrant	does not ablate ERα tissues	well-tolerated	can achieve biologically relevant concentrations in-vivo	superior to BHPI	eradicates metastatic tumor burden	completely blocked the growth of the resistant clones
